Experimental data published in US20240174639A1, “PYRIDINE DERIVATIVES USEFUL AS HCN2 MODULATORS” (King's College London, priority 2021, published 2024).
Structures can show the parent of a compound that is named as a salt.

Experiments:
HCN4 = molecular target: T1, HCN4 (Homo sapiens, UniProt Q9Y3Q4); experiment: HCN4 assay using PatchXpress 7000A (Example 50A); type: cell-based; details: PatchXpress protocol (PX)
T1 sequence (Q9Y3Q4 1-1203): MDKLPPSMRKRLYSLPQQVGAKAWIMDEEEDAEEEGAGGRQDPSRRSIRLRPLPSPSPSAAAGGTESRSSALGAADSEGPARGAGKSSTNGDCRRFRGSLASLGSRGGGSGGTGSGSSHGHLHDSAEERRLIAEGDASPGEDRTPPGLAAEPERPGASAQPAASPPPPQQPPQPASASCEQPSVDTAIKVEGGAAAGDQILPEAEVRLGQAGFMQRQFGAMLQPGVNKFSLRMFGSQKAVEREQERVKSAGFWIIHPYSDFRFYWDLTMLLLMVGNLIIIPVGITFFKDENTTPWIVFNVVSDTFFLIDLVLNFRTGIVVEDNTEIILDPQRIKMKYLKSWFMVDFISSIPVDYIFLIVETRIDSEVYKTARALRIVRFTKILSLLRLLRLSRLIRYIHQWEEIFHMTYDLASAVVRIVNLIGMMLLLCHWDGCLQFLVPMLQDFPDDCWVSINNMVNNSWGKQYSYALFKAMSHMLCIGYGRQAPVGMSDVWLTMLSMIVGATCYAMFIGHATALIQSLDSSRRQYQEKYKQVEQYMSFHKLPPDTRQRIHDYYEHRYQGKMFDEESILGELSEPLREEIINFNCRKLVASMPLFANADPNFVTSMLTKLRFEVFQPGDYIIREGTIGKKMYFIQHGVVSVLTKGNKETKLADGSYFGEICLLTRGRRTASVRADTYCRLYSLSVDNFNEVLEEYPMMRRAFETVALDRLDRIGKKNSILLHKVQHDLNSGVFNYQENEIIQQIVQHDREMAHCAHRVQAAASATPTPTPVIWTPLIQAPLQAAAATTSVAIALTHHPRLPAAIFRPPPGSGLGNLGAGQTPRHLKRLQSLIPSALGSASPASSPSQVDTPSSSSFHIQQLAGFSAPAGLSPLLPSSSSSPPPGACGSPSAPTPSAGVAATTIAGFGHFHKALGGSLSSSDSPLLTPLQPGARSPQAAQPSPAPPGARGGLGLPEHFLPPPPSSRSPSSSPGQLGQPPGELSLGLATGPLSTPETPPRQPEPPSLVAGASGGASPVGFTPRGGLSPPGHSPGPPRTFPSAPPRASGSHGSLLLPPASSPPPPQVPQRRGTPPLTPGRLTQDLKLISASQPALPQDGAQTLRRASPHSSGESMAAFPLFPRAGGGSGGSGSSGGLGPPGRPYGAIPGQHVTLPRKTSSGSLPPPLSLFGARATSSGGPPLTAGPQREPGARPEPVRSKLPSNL
Procedure: (§1) Solutions for recording HON currents were:
For HCN4, the pulse protocol involved stepping from a holding potential of −30 mV to −130 mV (see FIG. 1B) for 4 seconds to evoke the current.
(§2) The peak inward current measured at the end of the pulse to −110 mV (HCN1 and HCN2) or −130 mV (HCN4) was measured and any leak current subtracted to calculate the HCN current. The HCN current amplitude was measured after each control or compound addition and normalized to the control amplitude (Control A).
(§3) All experiments were performed at room temperature (approximately 22° C.).
(§4) Each test compound concentration was applied to the cell for seven (7) minutes, at which point the next cumulative concentration was applied. 3 mM CsCl was applied to each cell for 2 minutes at the end of each experiment (Control B) to determine 100% inhibition level of the HCN current.

HCN2 = molecular target: T2, HCN2 (Homo sapiens, UniProt Q9UL51); experiment: HCN2 assay using PatchXpress 7000A (Example 50A); type: cell-based; details: PatchXpress protocol (PX)
T2 sequence (Q9UL51 1-889): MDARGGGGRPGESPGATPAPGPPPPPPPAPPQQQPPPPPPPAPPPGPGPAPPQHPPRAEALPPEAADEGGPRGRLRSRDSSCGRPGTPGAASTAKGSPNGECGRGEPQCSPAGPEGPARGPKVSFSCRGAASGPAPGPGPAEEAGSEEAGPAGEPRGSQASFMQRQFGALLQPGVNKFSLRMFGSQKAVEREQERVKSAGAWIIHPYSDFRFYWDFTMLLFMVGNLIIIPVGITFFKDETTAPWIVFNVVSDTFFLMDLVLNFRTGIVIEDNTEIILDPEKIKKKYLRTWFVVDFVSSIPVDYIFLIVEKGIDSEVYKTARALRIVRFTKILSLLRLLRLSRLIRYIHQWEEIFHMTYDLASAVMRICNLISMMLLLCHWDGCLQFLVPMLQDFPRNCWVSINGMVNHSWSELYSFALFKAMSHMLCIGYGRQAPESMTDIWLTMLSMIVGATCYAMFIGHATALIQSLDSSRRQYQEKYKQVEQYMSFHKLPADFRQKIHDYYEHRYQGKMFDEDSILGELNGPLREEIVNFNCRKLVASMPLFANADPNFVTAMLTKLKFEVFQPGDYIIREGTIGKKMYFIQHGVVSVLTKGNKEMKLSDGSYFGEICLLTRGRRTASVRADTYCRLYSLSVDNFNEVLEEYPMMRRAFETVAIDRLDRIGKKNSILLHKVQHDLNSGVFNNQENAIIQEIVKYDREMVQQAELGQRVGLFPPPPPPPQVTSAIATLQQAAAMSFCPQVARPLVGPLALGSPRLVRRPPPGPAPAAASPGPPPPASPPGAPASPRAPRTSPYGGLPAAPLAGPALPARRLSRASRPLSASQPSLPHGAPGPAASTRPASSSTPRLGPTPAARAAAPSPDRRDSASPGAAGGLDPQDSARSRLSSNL
From the text: as §1
For HCN1 and HCN2, the pulse protocol involved stepping from a holding potential of −30 mV to −110 mV (see FIG. 1A) for 2 seconds to evoke the current. The membrane voltage was then stepped back to −30 mV for a further 8 seconds. This sequence was evoked repeatedly every 10 seconds throughout the experiment, starting prior to drug (Control A) and during cumulative additions of 5 increasing compound concentrations, then finally a 100% inhibiting concentration of cesium chloride (CsCl, 3 mM).
as §2, §3, §4

| Structure (SMILES) | IC50 (HCN4) [µM] | IC50 (HCN2) [µM] |
| --- | --- | --- |
| N[C@@H](Cc1ccccn1)c1ccccc1-n1ncc2cc(Br)ccc21 [Example 1, (S)-1-[2-(5-Bromo-1H-indazol-1-yl)phenyl]-2-(pyridine-2-yl)ethane-1-amine hydrochloride] | 3.4 | 0.9 |
| N#Cc1ccc2c(cnn2-c2ccccc2[C@@H](N)Cc2ccccn2)c1 [Example 3, (S)-1-{2-[1-Amino-2-(pyridine-2-yl)ethyl]-phenyl}-1H-indazole-5-carbonitrile hydro-chloride] | > 30 | 3.5 |
| Cc1cccc(C[C@H](N)c2ncccc2-n2ncc3ccccc32)n1 [Example 5, (S)-1-[3-(1H-indazole-1-yl)pyridine-2-yl]-2-(6-methylpyridine-2-yl)ethan-1-amine hydrochloride] | > 30 | 1.9 |
| N#Cc1cccc(C[C@H](N)c2ncccc2-n2ncc3ccccc32)n1 [Example 6, (S)-6-{2-[3-(1H-ind-azol-1-yl)pyridine-2-yl]-2-aminoethyl}pyridine-2-carbonitrile hydro-chloride] | 22.2 | 1.1 |
| N[C@@H](Cc1ccccn1)c1ccccc1-n1ncc2cnccc21 [Example 7, (S)-1-[2-(1H-pyrazolo-[4,3-c]pyridine-1-yl)-phenyl]-2-(pyridine-2-yl)ethan-1-amine hydrochloride] | > 30 | 7 |
| CN(C)C(=O)c1cccc(C[C@H](N)c2ncccc2-n2ncc3ccccc32)n1 [Example 8, (S)-6-{2-[3-(1H-ind-azol-1-yl)pyridine-2-yl]-2-aminoethyl}-N,N-dimethylpyridine-2-carboxamide hydro-chloride] | > 30 | 28.1 |
| NC(=O)c1cccc(C[C@H](N)c2ncccc2-n2ncc3ccccc32)n1 [Example 9, (S)-6-{2-[3-(1H-ind-azol-1-yl)pyridine-2-yl]-2-aminoethyl}pyridine-2-carboxamide hydro-chloride] | > 30 | 17.3 |
| N[C@@H](Cc1ncccc1F)c1ncccc1-n1ncc2ccccc21 [Example 10, (S)-1-[3-(1H-indazole-1-yl)pyridine-2-yl]-2-(3-fluoropyridine-2-yl)ethan-1-amine hydrochloride] | 4.2 | 0.08 |
| CCc1cccc(C[C@H](N)c2ncccc2-n2ncc3ccccc32)n1 [Example 15, (S)-1-[3-(1H-indazole-1-yl)pyridine-2-yl]-2-(6-ethylpyridine-2-yl)-ethan-1-amine hydro-chloride] | 14.8 | 2.1 |
| Cc1cccnc1C[C@H](N)c1ncccc1-n1ncc2ccccc21 [Example 16, (S)-1-[3-(1H-indazole-1-yl)pyridine-2-yl]-2-(3-methylpyridine-2-yl)ethan-1-amine hydrochloride] | 2.1 | 0.13 |
| N[C@@H](Cc1cccc(F)n1)c1ncccc1-n1ncc2ccccc21 [Example 17, (S)-1-[3-(1H-indazole-1-yl)pyridine-2-yl]-2-(6-fluoropyridine-2-yl)ethan-1-amine hydrochloride] | 14.7 | 3.3 |
| N[C@@H](Cc1ccc(F)cn1)c1ncccc1-n1ncc2ccccc21 [Example 18, (S)-1-[3-(1H-indazole-1-yl)pyridine-2-yl]-2-(5-fluoropyridine-2-yl)-ethan-1-amine hydro-chloride] | 11.7 | 0.5 |
| Cc1nc(C[C@H](N)c2ncccc2-n2ncc3ccccc32)ccc1F [Example 20, (S)-1-[3-(1H-indazole-1-yl)pyridine-2-yl]-2-(5-fluoro-6-methyl-pyridine-2-yl)ethan-1-amine hydrochloride] | 13 | 0.9 |
| CS(=O)(=O)c1ccc(F)c(C[C@H](N)c2ncccc2-n2ncc3ccccc32)n1 [Example 21, (S)-1-[3-(1H-indazole-1-yl)pyridine-2-yl]-2-(3-fluoro-6-methyl-sulfonylpyridine-2-yl)-ethan-1-amine formate] | ≥ 30 | 1.1 |
| N#Cc1nc(C[C@H](N)c2ncccc2-n2ncc3ccccc32)ccc1F [Example 22, (S)-6-{2-[3-(1H-ind-azol-1-yl)pyridine-2-yl]-2-aminoethyl}-3-fluoropyridine-2-carbonitrile hydro-chloride] | 13.4 | 0.32 |
| N#Cc1ccc(F)c(C[C@H](N)c2ncccc2-n2ncc3ccccc32)n1 [Example 23, (S)-6-{2-[3-(1H-ind-azol-1-yl)pyridine-2-yl]-2-aminoethyl}-5-fluoropyridine-2-carbonitrile formate] | 7.5 | 0.18 |
| N[C@@H](Cc1nc(CCO)ccc1F)c1ncccc1-n1ncc2ccccc21 [Example 24, (S)-2-(6-{2-[3-(1H-Indazol-1-yl)pyridine-2-yl]-2-aminoethyl}-5-fluoropyridine-2-yl)-ethan-1-ol hydrochloride] | 19.2 |  |
| CCc1ccc(F)c(C[C@H](N)c2ncccc2-n2ncc3ccccc32)n1 [Example 25, (S)-1-[3-(1H-indazole-1-yl)pyridine-2-yl]-2-(3-fluoro-6-ethylpyr-idine-2-yl)ethan-1-amine hydrochloride] | 1.6 | 0.34 |
| Cc1cc(F)cnc1C[C@H](N)c1ncccc1-n1ncc2ccccc21 [Example 26, (S)-1-[3-(1H-indazole-1-yl)pyridine-2-yl]-2-(5-fluoro-3-methyl-pyridine-2-yl)ethan-1-amine hydrochloride] | 0.5 | 0.015 |
| N[C@@H](Cc1ncccc1F)c1ncccc1-n1ncc2cc(F)ccc21 [Example 28, (S)-1-[3-(5-Fluoro-1H-indazole-1-yl)pyridine-2-yl]-2-(3-fluoropyr- -idine-2-yl)ethan-1-amine hydrochloride] | > 30 | 1 |
